Results as given in patent US12251444B2, “Compositions and methods for delivering an agent to a wound” (priority 2009, dated 2025).

Key:
Pseudomonas aeruginosa = test: Turbidity/growth assay of sponge elution samples against Pseudomonas aeruginosa; type: cell-based; details: eluate of amikacin-loaded 61/71 DDA chitosan sponge
Protocol: To determine whether agents eluted from the sponges could be used to inhibit bacterial growth, zone of inhibition (ZOI) studies were carried out (FIGS. 3A-3D). Chitosan sponges loaded with a single antibiotic or combinations of antibiotics, as above, were analyzed for their ability to inhibit bacterial growth. For the assays to determine inhibition of bacterial growth, the bacterial strains Pseudomonas aeruginosa and Staphylococcus aureus were used. Results showing the inhibition of Pseudomonas aeruginosa and Staphylococcus aureus are shown at Tables 2 and 3, respectively.
Drug activity of the aliquots was tested using a turbidity assay. Two different strains of bacteria were used in this study. Vancomycin samples were tested against Staphylococcus aureus and amikacin samples were tested against both Staphylococcus aureus and Pseudomonas aeruginosa. 200 μl of each aliquot was added to 1.8 ml of Mueller-Hinton II broth combined with 20 μl of S. aureus inoculum. Amikacin samples (200 μl) were also added to 1.75 ml of trypticase soy broth (TSB) and 50 μl of P. aeruginosa inoculum. Samples were incubated for 24 hours at 37 C. Absorbance measurements were recorded after incubation at a wavelength of 530 nm (A530).
Drug activity of the aliquots was tested using a turbidity assay. Samples were tested against Pseudomonas aeruginosa. […] Absorbance measurements at 530 nm on a spectrophotometer (BioTek).

in vivo = details: goat
[1] = Amikacin and vancomycin elution from sterilized chitosan films; type: physicochemical; details: films soaked in 5 mg/ml antibiotic 2 minutes, 50 ml sterile saline, refreshed
Protocol: Agent elution from chitosan films was also analyzed (FIG. 1C). Sterilized chitosan films were loaded with amikacin and vancomycin. […] The elution was done in 50 ml of sterile saline solution and completely refreshed at each time point. The elution was carried out for 3 days. The values shown in FIG. 1C are expressed in μg/ml.
Elution data from chitosan films is provided at Table 4. […] The elution was done in 50 ml of sterile saline solution and completely refreshed at each time point. The elution was carried out for 3 days. The values shown on the graph are in μg/ml.
In one approach, samples were submerged into 15 ml amikacin solution (5 mg/ml) and allowed to hydrate for 2 minutes. Samples were then subjected to elution tests by submerging the films in 50 ml of 1× Phosphate Buffered Saline (PBS) and agitated in a 37 C incubator for the duration of the study. One ml aliquots were removed at 1, 3, 6, 24, 48, and 72 hours. Aliquots were tested for antibiotic concentration using a fluorescence polarization immunoassay technique (TDxFLx, Abbott Labs, Abbott Park, IL).

[2] = Antibiotic elution from sponge fragments retrieved from goats; type: physicochemical, goat
From the text: Sponge fragments remained in 8 of the 10 goats treated with chitosan sponges.

[3] = Antibiotic elution from sterilized chitosan sponges in PBS (TDx); type: physicochemical; details: for effect of a co-loaded antibiotic on release from chitosan sponge: sponges hydrated with 5 mg/ml single or combined antibiotics, 20 ml PBS
Protocol: In a preferred approach adopted for use in the goat wound treatment model described in Example 2, 2.5 grams of chitosan was dissolved in 247.5 ml of 1 (v/v) % blended acid solvent. The mixture contained 75%/25% lactic to acetic acid. This mixture was stirred for 4-6 hours at maximum allowable speed on a stir plate. The chitosan solution was filtered to remove undissolved chitosan. 25 ml of chitosan solution was pipetted into small aluminum weigh dishes ([…]). Each dish was frozen at […] freezer for 1 hour. The frozen samples were then placed into a freeze-dryer and lyophilize for 48 hours. Sponge samples were neutralized in 0.175 M NaOH— solution for ˜30-40 seconds. The sponges were rinsed repeatedly in containers filled with distilled water and pH changes were monitored until the rinsing water was neutral in pH. The re-hydrated sponges were then incubated at −80 C freezer for 1 hour and re-lyophilized for 24-48 hours. The sponges were then sterilized using low-dose gamma irradiation at Wright Medical (25-32 kGy).
Sponges were subjected to elution tests by submerging hydrated sponges into 20 ml of 1× Phosphate Buffered Saline (PBS), kept in a 37° C. incubator for the duration of the study. […] One ml aliquots were taken at 1, 3, 6, 24, 48, and 72 hours. Aliquots were tested for antibiotic concentration using a fluorescence polarization immunoassay technique (TDx, Abbott Labs, Abbott Park, IL).

[4] = tested on: S. aureus (Cowan I strain); test: Turbidity assay of film eluates against S. aureus; type: cell-based, Staphylococcus aureus; details: 48 and 72 hr eluate samples from chitosan films
Protocol: In other studies, antibiotic activity against S. aureus (Cowan I strain) was determined by utilizing the remaining antibiotic elution samples, in triplicate, in a turbidity assay. In this turbidity study, solution clarity after sufficient bacterial incubation with antibiotic eluates indicated bacterial inhibition due to antibiotic activity.
Blanks containing neither S aureus nor eluate samples, positive controls containing S aureus without antibiotic eluates, and negative controls containing both S aureus and high concentration antibiotic standards were mixed and incubated at 37° C. along with the eluate samples. After 24 hours of incubation, the tubes were vortexed and the absorbance at 530 nm of each inoculum solution was recorded using a spectrophotometer.

[5] = 5 mg/ml solution (sponge loading)

| Compound | elution from sterilized chitosan films ([1]; 1 hour) | elution from sterilized chitosan films ([1]; 3 hours) | elution from sterilized chitosan films ([1]; 6 hours) | elution from sterilized chitosan films ([1]; 24 hours) | elution from sterilized chitosan films ([1]; 48 hours) | elution from sterilized chitosan films ([1]; 72 hours) | effect of a co-loaded antibiotic on release from chitosan sponge [3] | inhibition of S. aureus growth by film eluates [4] | further results |
| --- | --- | --- | --- | --- | --- | --- | --- | --- | --- |
| NCC[C@H](O)C(=O)N[C@@H]1C[C@H](N)[C@@H](O[C@H]2O[C@H](CN)[C@@H](O)[C@H](O)[C@H]2O)[C@H](O)[C@H]1O[C@H]1O[C@H](CO)[C@@H](O)[C@H](N)[C@H]1O [amikacin] | 50.63 ± 4.49 µg/mL | 2.15 ± 1.13 µg/mL | 3.17 ± 1.14 µg/mL | 3.93 ± 0.57 µg/mL | 4.7 ± 2.49 µg/mL | 0.6 ± 0.48 µg/mL | vancomycin nor daptomycin affected the release of amikacin | – | Bacterial growth inhibition of P. aeruginosa (Pseudomonas aeruginosa; after 72 hours): 93.1%; Bacterial growth inhibition of P. aeruginosa (Pseudomonas aeruginosa; after one hour): 98.7%; concentration at 6 h (in vivo): 526 ± 478 ng/mL; concentration at 12 h (in vivo): 200 ng/mL; concentration at 24 h (in vivo): 200 ng/mL; concentration at 36 h (in vivo): 200 ng/mL; concentration at 42 h (in vivo): 200 ng/mL; 12 hr TDx reading, antibiotic elution from remaining sponge fragments, Mean ([2]; goat, 12 h): 0.60 µg/mL/g |
| CCCCCCCCCC(=O)N[C@@H](Cc1c[nH]c2ccccc12)C(=O)N[C@H](CC(N)=O)C(=O)N[C@@H](CC(=O)O)C(=O)N[C@@H]1C(=O)NCC(=O)N[C@@H](CCCN)C(=O)N[C@@H](CC(=O)O)C(=O)N[C@H](C)C(=O)N[C@@H](CC(=O)O)C(=O)NCC(=O)N[C@H](CO)C(=O)N[C@@H]([C@H](C)CC(=O)O)C(=O)N[C@@H](CC(=O)c2ccccc2N)C(=O)O[C@@H]1C [daptomycin] | – | – | – | – | – | – | Amikacin did not affect the release of daptomycin | active in inhibiting the growth of S. aureus | release from chitosan sponge compared with the other tested antibiotics ([3]; 72 hour time point, sponges hydrated with 5 mg/ml, one antibiotic per sponge): significantly less than the other two tested antibiotics |
| CN[C@H](CC(C)C)C(=O)N[C@H]1C(=O)N[C@@H](CC(N)=O)C(=O)N[C@H]2C(=O)N[C@H]3C(=O)N[C@H](C(=O)N[C@H](C(=O)O)c4cc(O)cc(O)c4-c4cc3ccc4O)[C@H](O)c3ccc(c(Cl)c3)Oc3cc2cc(c3O[C@@H]2O[C@H](CO)[C@@H](O)[C@H](O)[C@H]2O[C@H]2C[C@](C)(N)[C@H](O)[C@H](C)O2)Oc2ccc(cc2Cl)[C@H]1O [vancomycin] | 83.45 ± 17.25 µg/mL | 19.35 ± 7.98 µg/mL | 0.58 ± 0.88 µg/mL | 2.53 ± 0.66 µg/mL | 9.72 ± 1.92 µg/mL | 6.13 ± 0.39 µg/mL | amikacin did not affect the release of vancomycin | active in inhibiting the growth of S. aureus | concentration at 6 h (in vivo; [5]): 1630 ± 646 ng/mL; concentration at 12 h (in vivo; [5]): 703 ± 348 ng/mL; concentration at 24 h (in vivo; [5]): 845 ± 539 ng/mL; concentration at 36 h (in vivo; [5]): 740 ± 477 ng/mL; concentration at 42 h (in vivo; [5]): 275 ± 70 ng/mL; 12 hr TDx reading, antibiotic elution from remaining sponge fragments, Mean ([2]; mean of 4 goats, fragments retrieved after 42 hours in vivo, 20 ml sterile saline, 37° C., 12 hours): 3.78 µg/mL/g |
